Data taken from ChEMBL document CHEMBL1201862, “PubChem BioAssay data set” (2004).
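Interpolation was linear, between the two tested concentrations surrounding the appropriate level; five concentrations were tested over 48 hours in 96-well plates. Abbreviation: GI50, concentration required for 50% inhibition of growth.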 The source made the active and inactive calls. Rule as the data show it: active = GI50 up to about 1.1 µM and inactive = higher.

Legend:
Assay in all cases: NCI anticancer screen, dose series, 48 h
IGROV-1 = tested on: IGROV-1
OVCAR-3 = tested on: OVCAR-3
A498 = tested on: A498
786-0 = tested on: 786-0
PC-3 = tested on: PC-3
SK-MEL-5 = tested on: SK-MEL-5
MDA-N = tested on: MDA-N
M14 = tested on: M14
UACC-62 = tested on: UACC-62
UO-31 = tested on: UO-31
DU-145 = tested on: DU-145
HT-29 = tested on: HT-29
SNB-19 = tested on: SNB-19
K562 = tested on: K562
NCI-H23 = tested on: NCI-H23
OVCAR-5 = tested on: OVCAR-5
OVCAR-4 = tested on: OVCAR-4
LOX IMVI = tested on: LOX IMVI
HOP-92 = tested on: HOP-92
A549 = tested on: A549
ACHN = tested on: ACHN
SN12C = tested on: SN12C
NCI-H226 = tested on: NCI-H226
SR = tested on: SR
HL-60 = tested on: HL-60
RPMI-8226 = tested on: RPMI-8226
HOP-62 = tested on: HOP-62
SW-620 = tested on: SW-620
NCI-H522 = tested on: NCI-H522
HCT-15 = tested on: HCT-15
CCRF-CEM = tested on: CCRF-CEM
MDA-MB-231 = tested on: MDA-MB-231
U-251 = tested on: U-251
SF-295 = tested on: SF-295
MDA-MB-435 = tested on: MDA-MB-435
HCT-116 = tested on: HCT-116
TK-10 = tested on: TK-10
CAKI-1 = tested on: CAKI-1
MCF7 = tested on: MCF7
BT-549 = tested on: BT-549
UACC-257 = tested on: UACC-257
SK-MEL-2 = tested on: SK-MEL-2
HCC 2998 = tested on: HCC 2998
MOLT-4 = tested on: MOLT-4
EKVX = tested on: EKVX
NCI-H460 = tested on: NCI-H460
SF-539 = tested on: SF-539
RXF 393 = tested on: RXF 393
T47D = tested on: T47D
COLO 205 = tested on: COLO 205
OVCAR-8 = tested on: OVCAR-8
NCI/ADR-RES = tested on: NCI/ADR-RES
KM12 = tested on: KM12
Hs-578T = tested on: Hs-578T
SF-268 = tested on: SF-268
Malme-3M = tested on: Malme-3M
SK-MEL-28 = tested on: SK-MEL-28
SK-OV-3 = tested on: SK-OV-3
SNB-75 = tested on: SNB-75

COc1ccc(/C=C2\C(=O)N(C)C(=O)c3cc(OC)c(OC)cc32)cc1OC
GI50 (IGROV-1): 29.2 µM (inactive) | GI50 (OVCAR-3): 37.4 µM (inactive) | GI50 (A498): 27.4 µM (inactive) | GI50 (786-0): 43.5 µM (inactive) | GI50 (PC-3): 49.7 µM (inactive) | GI50 (SK-MEL-5): 28.8 µM (inactive) | GI50 (MDA-N): 24.3 µM (inactive) | GI50 (M14): 65.2 µM (inactive) | GI50 (UACC-62): 26.9 µM (inactive) | GI50 (UO-31): 48 µM (inactive) | GI50 (DU-145): 25.3 µM (inactive) | GI50 (HT-29): 9.06 µM (inactive) | GI50 (SNB-19): 43.3 µM (inactive) | GI50 (K562): 28.2 µM (inactive) | GI50 (NCI-H23): 39.5 µM (inactive) | GI50 (OVCAR-5): 48.9 µM (inactive) | GI50 (OVCAR-4): 38.9 µM (inactive) | GI50 (LOX IMVI): 16 µM (inactive) | GI50 (HOP-92): 23.4 µM (inactive) | GI50 (A549): 65.6 µM (inactive) | GI50 (ACHN): 30.5 µM (inactive) | GI50 (SN12C): 32.8 µM (inactive) | GI50 (NCI-H226): 12.9 µM (inactive) | GI50 (SR): 19.2 µM (inactive) | GI50 (HL-60): 14.5 µM (inactive) | GI50 (RPMI-8226): 27.7 µM (inactive) | GI50 (HOP-62): 29.9 µM (inactive) | GI50 (SW-620): 36.6 µM (inactive) | GI50 (NCI-H522): 15.7 µM (inactive) | GI50 (HCT-15): 30.8 µM | GI50 (CCRF-CEM): 20.2 µM (inactive) | GI50 (MDA-MB-231): 39.4 µM (inactive) | GI50 (U-251): 33 µM (inactive) | GI50 (SF-295): 37.8 µM (inactive) | GI50 (MDA-MB-435): 34.5 µM (inactive) | GI50 (HCT-116): 29.4 µM (inactive) | GI50 (TK-10): 43.1 µM (inactive) | GI50 (CAKI-1): 13.4 µM (inactive) | GI50 (MCF7): 27.2 µM (inactive) | GI50 (BT-549): 17.6 µM (inactive) | GI50 (UACC-257): 47.3 µM (inactive) | GI50 (SK-MEL-2): 35.6 µM (inactive) | GI50 (HCC 2998): > 100 µM (inactive) | GI50 (MOLT-4): 52.1 µM (inactive) | GI50 (EKVX): 10.7 µM (inactive) | GI50 (NCI-H460): 37.5 µM (inactive) | GI50 (SF-539): 34.9 µM (inactive) | GI50 (RXF 393): 23.6 µM (inactive) | GI50 (T47D): 24.5 µM (inactive) | GI50 (COLO 205): 16.4 µM (inactive)

O=[N+]([O-])CC(SCc1ccccc1)c1ccc2c(c1)OCO2 (stereo not drawn)
GI50 (IGROV-1): 5.6 µM (inactive) | GI50 (OVCAR-3): 6.12 µM (inactive) | GI50 (OVCAR-8): 8.49 µM (inactive) | GI50 (A498): 6.98 µM (inactive) | GI50 (786-0): 1.68 µM (inactive) | GI50 (PC-3): 16.8 µM (inactive) | GI50 (SK-MEL-5): 12.2 µM (inactive) | GI50 (MDA-N): 2.45 µM (inactive) | GI50 (M14): 5.6 µM (inactive) | GI50 (UACC-62): 9.89 µM (inactive) | GI50 (UO-31): 8.26 µM (inactive) | GI50 (DU-145): 14.5 µM (inactive) | GI50 (HT-29): 2.61 µM (inactive) | GI50 (SNB-19): 14 µM (inactive) | GI50 (NCI/ADR-RES): 9.57 µM (inactive) | GI50 (K562): 1.55 µM (inactive) | GI50 (NCI-H23): 7.19 µM (inactive) | GI50 (OVCAR-5): 15.2 µM (inactive) | GI50 (OVCAR-4): 13.2 µM (inactive) | GI50 (KM12): 6.84 µM (inactive) | GI50 (Hs-578T): 6.31 µM (inactive) | GI50 (LOX IMVI): 1.56 µM (inactive) | GI50 (HOP-92): 3.79 µM (inactive) | GI50 (A549): 7.67 µM (inactive) | GI50 (ACHN): 13.1 µM (inactive) | GI50 (SN12C): 11.7 µM (inactive) | GI50 (NCI-H226): 7.91 µM (inactive) | GI50 (SR): 3.13 µM (inactive) | GI50 (SF-268): 9.4 µM (inactive) | GI50 (HL-60): 1.58 µM (inactive) | GI50 (RPMI-8226): 1.57 µM (inactive) | GI50 (HOP-62): 17.4 µM (inactive) | GI50 (SW-620): 3.81 µM (inactive) | GI50 (Malme-3M): 14.9 µM (inactive) | GI50 (NCI-H522): 11.5 µM (inactive) | GI50 (HCT-15): 3.84 µM | GI50 (CCRF-CEM): 2.54 µM (inactive) | GI50 (MDA-MB-231): 10.3 µM (inactive) | GI50 (U-251): 6.59 µM (inactive) | GI50 (SK-MEL-28): 5.82 µM (inactive) | GI50 (SK-OV-3): 15.1 µM (inactive) | GI50 (SF-295): 7.76 µM (inactive) | GI50 (MDA-MB-435): 2.5 µM (inactive) | GI50 (HCT-116): 1.69 µM (inactive) | GI50 (TK-10): 10.8 µM (inactive) | GI50 (CAKI-1): 14.2 µM (inactive) | GI50 (MCF7): 3.04 µM (inactive) | GI50 (UACC-257): 6.79 µM (inactive) | GI50 (SK-MEL-2): 21.1 µM (inactive) | GI50 (HCC 2998): 5.57 µM (inactive) | GI50 (MOLT-4): 3.37 µM (inactive) | GI50 (SNB-75): 15.1 µM (inactive) | GI50 (EKVX): 20.2 µM (inactive) | GI50 (NCI-H460): 14.8 µM (inactive) | GI50 (SF-539): 4.01 µM (inactive) | GI50 (RXF 393): 1.82 µM (inactive) | GI50 (T47D): 19.6 µM (inactive) | GI50 (COLO 205): 8.24 µM (inactive)
